According to patent publication US8853213B2, “Bicyclic compound for modulating G protein-coupled receptors” (Hanmi Pharm. Co., Ltd, priority 2011, dated 2014):

Molecular target: T1, GPR119 (Homo sapiens, UniProt Q8TDV5)
T1 construct: host or cells: CHO-K1 (CRE-bla reporter, doxycycline-induced)
T1 sequence (Q8TDV5 1-335): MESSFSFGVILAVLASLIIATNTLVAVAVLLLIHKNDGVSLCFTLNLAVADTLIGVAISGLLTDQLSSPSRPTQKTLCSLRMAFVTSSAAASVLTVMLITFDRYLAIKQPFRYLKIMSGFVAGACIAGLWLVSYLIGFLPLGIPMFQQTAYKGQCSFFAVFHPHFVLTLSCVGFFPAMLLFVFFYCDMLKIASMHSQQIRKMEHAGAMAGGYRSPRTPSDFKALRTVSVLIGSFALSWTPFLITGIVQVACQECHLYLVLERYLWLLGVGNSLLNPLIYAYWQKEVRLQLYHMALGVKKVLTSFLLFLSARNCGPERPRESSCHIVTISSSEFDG
Assay: Controlling Effect of GPR119 in CRE-bla CHO-K1 Cells (EC50)
Type: cell-based
Settings: GPR119 CRE-bla CHO-K1 cell line, 5 hr incubation with compound, β-lactamase LiveBLAzer-FRET B/G readout; read-out: controlling effect against GPR119 in CRE-bla CHO-K1 cell line (EC50)
Outline: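 CHO-K1 cells carrying GPR119 and a CRE-β-lactamase reporter, induced with doxycycline for 16-20 h at 37° C, then exposed to compounds in 10-fold dilutions for 5 h. CCF4-AM FRET substrate added for 2 h at room temperature; blue/green fluorescence (409 ex, […]) read and EC50 derived.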

Row | SMILES | EC50 [nM]
1 | CC(C)c1noc(N2CCC(Oc3ncnc4c(-c5ccc(OC(F)(F)F)cc5)csc34)CC2)n1 [Example 99, 4-[1-(3-isopropyl-[1,2,4]oxadiazol-5-yl)-piperidin-4-yloxy]-7-(4-trifluoromethoxy-phenyl)-thieno[3,2-d]pyrimidine] | 100 to 1000
2 | CC(C)c1noc(N2CCC(Oc3ncnc4c(-c5ccc(SC(F)(F)F)cc5)csc34)CC2)n1 [Example 100, 4-[1-(3-isopropyl-[1,2,4]oxadiazol-5-yl)-piperidin-4-yloxy]-7-(4-trifluoromethylsulfanyl-phenyl)-thieno[3,2-d]pyrimidine] | > 1000
3 | CC(C)c1noc(N2CCC(Oc3ncnc4c(-c5ccc(S(=O)(=O)C(F)(F)F)cc5F)csc34)CC2)n1 [Example 101, 7-(2-fluoro-4-trifluoro(methanesulfonyl)phenyl)-4-[1-(3-isopropyl-[1,2,4]oxadiazol-5-yl)-piperidin-4-yloxy]-thieno[3,2-d]pyrimidine] | > 1000
4 | COC(=O)c1ccc(-c2csc3c(OC4CCN(c5nc(C(C)C)no5)CC4)ncnc23)cc1 [Example 102, 4-{4-[1-(3-isopropyl-[1,2,4]oxadiazol-5-yl)-piperidin-4-yloxy]-thieno[3,2-d]pyrimidin-7-yl}-benzoic acid methylester] | 100 to 1000
5 | CC(=O)c1ccc(-c2csc3c(OC4CCN(c5nc(C(C)C)no5)CC4)ncnc23)cc1 [Example 103, 1-(4-{4-[1-(3-isopropyl-[1,2,4]oxadiazol-5-yl)-piperidin-4-yloxy]-thieno[3,2-d]pyrimidin-7-yl}-phenyl)-ethanone] | < 100
6 | CC(C)c1noc(N2CCC(Oc3ncnc4c(-c5ccc(S(=O)(=O)C6CC6)cc5)csc34)CC2)n1 [Example 104, 7-(4-cyclopropylsulfonyl-phenyl)-4-[1-(3-isopropyl-[1,2,4]oxadiazol-5-yl)-piperidin-4-yloxy]-thieno[3,2-d]pyrimidine] | < 100
7 | CC(C)c1noc(N2CCC(Oc3ncnc4c(-c5ccc(S(=O)(=O)C(C)C)cc5)csc34)CC2)n1 [Example 105, 4-[1-(3-isopropyl-[1,2,4]oxadiazol-5-yl)-piperidin-4-yloxy]-7-(4-isopropylsulfonyl-phenyl)-thieno[3,2-d]pyrimidine] | < 100
8 | CCCS(=O)(=O)c1ccc(-c2csc3c(OC4CCN(c5nc(C(C)C)no5)CC4)ncnc23)cc1 [Example 106, 4-[1-(3-isopropyl-[1,2,4]oxadiazol-5-yl)-piperidin-4-yloxy]-7-(4-propylsulfonyl-phenyl)-thieno[3,2-d]pyrimidine] | < 100
9 | CCCS(=O)(=O)c1ccc(-c2csc3c(OC4CCN(c5nc(C(C)C)no5)CC4)ncnc23)c(F)c1 [Example 107, 7-(2-fluoro-(4-propylsulfonyl)-phenyl)-4-[1-(3-isopropyl-[1,2,4]oxadiazol-5-yl)-piperidin-4-yloxy]-thieno[3,2-d]pyrimidine] | < 100
10 | CC(C)c1noc(N2CCC(Oc3ncnc4c(-c5ccc(S(=O)(=O)C6CCCC6)cc5)csc34)CC2)n1 [Example 108, 7-(4-cyclopentylsulfonyl-phenyl)-4-[1-(3-isopropyl-[1,2,4]oxadiazol-5-yl)-piperidin-4-yloxy]-thieno[3,2-d]pyrimidine] | < 100
11 | CC(C)(C)OC(=O)N1CCC(Nc2ncnc3c(-c4ccc(S(C)(=O)=O)cc4)csc23)CC1 [Example 109, tert-butyl 4-(7-(4-methanesulfonyl-phenyl)thieno[3,2-d]pyrimidin-4-ylamino)piperidin-1-carboxylate] | 100 to 1000
12 | CS(=O)(=O)c1ccc(-c2csc3c(NC4CCNCC4)ncnc23)cc1 [Example 110, 7-(4-methanesulfonyl-phenyl)-N-(piperidin-4-yl)thieno[3,2-d]pyrimidin-4-amine] | > 1000
13 | CCc1cnc(N2CCC(Nc3ncnc4c(-c5ccc(S(C)(=O)=O)cc5)csc34)CC2)nc1 [Example 111, N-(1-(5-ethylpyrimidin-2-yl)piperidin-4-yl)-7-(4-methanesulfonyl-phenyl)thieno[3,2-d]pyrimidin-4-amine] | > 1000
14 | CN(c1ncnc2c(-c3ccc(S(C)(=O)=O)cc3)csc12)C1CCN(C(=O)OC(C)(C)C)CC1 [Example 112, tert-butyl 4-(methyl(7-(4-methanesulfonyl-phenyl)thieno[3,2-d]pyrimidin-4-yl)amino)piperidin-1-carboxylate] | < 100
15 | CCc1cnc(N2CCC(N(C)c3ncnc4c(-c5ccc(S(C)(=O)=O)cc5)csc34)CC2)nc1 [Example 114, [1-(5-ethylpyrimidin-2-yl)-piperidin-4-yl]-[7-(4-methanesulfonyl-phenyl)-thieno[3,2-d]pyrimidin-4-yl]-methylamine] | > 1000
16 | CCN(c1ncnc2c(-c3ccc(S(C)(=O)=O)cc3)csc12)C1CCN(c2ccc(C(F)(F)F)cn2)CC1 [Example 115, Ethyl-[7-(4-methanesulfonyl-phenyl)-thieno[3,2-d]pyrimidin-4-yl]-(5′-trifluoromethyl-3,4,5,6-tetrahydro-2H-[1,2′]bipyridinyl-4-yl)amine] | > 1000
17 | Cn1cc(-c2ccc(S(C)(=O)=O)cc2)c2ncnc(NC3CCN(C(=O)OC(C)(C)C)CC3)c21 [Example 116, tert-butyl 4-(5-methyl-7-(4-methanesulfonyl-phenyl)-5H-pyrrolo[3,2-d]pyrimidin-4-ylamino)piperidin-1-carboxylate] | > 1000
18 | CC(C)c1noc(C2CCN(c3ncnc4c(-c5ccc(S(C)(=O)=O)cc5)cn(C)c34)CC2)n1 [Example 117, 3-isopropyl-5-(1-(5-methyl-7-(4-methanesulfonyl-phenyl)-5H-pyrrolo[3,2-d]pyrimidin-4-yl)piperidin-4-yl)-1,2,4-oxadiazole] | 100 to 1000
19 | CC(C)c1noc(C2CCN(c3ncnc4c(-c5ccc(-n6cnnn6)cc5)csc34)CC2)n1 [Example 118, 5-(1-(7-(4-(1H-tetrazol-1-yl)phenyl)thieno[3,2-d]pyrimidin-4-yl)piperidin-4-yl)-3-iso propyl-1,2,4-oxadiazole] | 100 to 1000
20 | CC(C)(C)c1noc(N2CCC(Oc3ncnc4c(-c5ccc(-n6cncn6)cc5)csc34)CC2)n1 [Example 119, 5-(4-(7-(4-(1H-1,2,4-triazol-1-yl)phenyl)thieno[3,2-d]pyrimidin-4-yloxy)piperidin-1-yl)-3-tert-butyl-1,2,4-oxadiazole] | < 100
21 | Cn1cc(-c2ccc(-n3cnnn3)cc2)c2ncnc(OC3CCN(C(=O)OC(C)(C)C)CC3)c21 [Example 120, tert-butyl 4-(7-(4-(1H-tetrazol-1-yl)phenyl)-5-methyl-5H-pyrrolo[3,2-d]pyrimidin-4-yloxy)piperidin-1-carboxylate] | < 100
22 | CCc1cnc(N2CCC(Oc3ncnc4c(-c5ccc(N)cc5)cn(C)c34)CC2)nc1 [Example 121, 4-(4-(1-(5-ethylpyrimidin-2-yl)piperidin-4-yloxy)-5-methyl-5H-pyrrolo[3,2-d]pyrimidin-7-yl)benzenamine] | > 1000
23 | CCc1cnc(N2CCC(Oc3ncnc4c(-c5ccc(-n6cnnn6)cc5)cn(C)c34)CC2)nc1 [Example 122, 7-(4-(1H-tetrazol-1-yl)phenyl)-4-(1-(5-ethylpyrimidin-2-yl)piperidin-4-yloxy)-5-methyl-5H-pyrrolo[3,2-d]pyrimidine] | < 100
24 | Cn1cc(-c2ccc(-n3cnnn3)cc2)c2ncnc(OC3CCN(c4ncc(C(F)(F)F)cn4)CC3)c21 [Example 123, 7-(4-(1H-tetrazol-1-yl)phenyl)-5-methyl-4-(1-(5-(trifluoromethyl)pyrimidin-2-yl)piperidin-4-yloxy)-5H-pyrrolo[3,2-d]pyrimidine] | < 100
25 | Cn1cc(-c2ccc(-n3cnnn3)cc2)c2ncnc(O[C@H]3CCN(C(=O)OC(C)(C)C)C3)c21 [Example 125, (S)-tert-butyl 3-[5-methyl-7-(4-tetrazol-1-yl-phenyl)-5H-pyrrolo[3,2-d]pyrimidin-4-yloxy)pyrrolidin-1-carboxylate] | > 1000
